# Data published in PubChem BioAssay (NCI).
#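 Growth conditions: 96-well plates. Treatment: test compound, 48 hours, 5 concentrations. Analysis: linear interpolation between bracketing concentrations; unreached endpoints set to highest concentration. At the GI50, growth is halved. TGI marks complete inhibition of growth.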
# Assays:
# Experiment in all cases: DTP human tumour cell line panel, 48 h
# COLO 205 colon = tested on: COLO 205 colon
# HT29 colon = tested on: HT29 colon
# SN12C renal = tested on: SN12C renal
# HCT-15 colon = tested on: HCT-15 colon
# SNB-78 CNS = tested on: SNB-78 CNS
# UACC-257 melanoma = tested on: UACC-257 melanoma
# MOLT-4 leukemia = tested on: MOLT-4 leukemia
# SW-620 colon = tested on: SW-620 colon
# DLD-1 colon = tested on: DLD-1 colon
# PC-3 prostate = tested on: PC-3 prostate
SMILES,TGI (COLO 205 colon) [µM],TGI (HT29 colon) [µM],TGI (SN12C renal) [µM],TGI (HCT-15 colon) [µM],TGI (SNB-78 CNS) [µM],TGI (UACC-257 melanoma) [µM],TGI (MOLT-4 leukemia) [µM],TGI (SW-620 colon) [µM],TGI (DLD-1 colon) [µM],GI50 (COLO 205 colon) [µM],GI50 (HT29 colon) [µM],GI50 (SN12C renal) [µM],GI50 (HCT-15 colon) [µM],GI50 (SNB-78 CNS) [µM],GI50 (UACC-257 melanoma) [µM],GI50 (MOLT-4 leukemia) [µM],GI50 (SW-620 colon) [µM],GI50 (DLD-1 colon) [µM],TGI (PC-3 prostate) [µM]
OC12CCC3(OC4CCCCO4)c4ccccc4C3C1c1ccccc12 (configuration not stated),> 100,> 100,> 100,> 100,> 100,> 100,> 100,> 100,–,–,–,–,–,–,–,–,–,–,–
Oc1c(Br)cc2c(c1Br)-c1c(c(O)c3c4c1=NCCC=4C=N3)NCC2,11.7,20.8,29.3,30.6,13.4,20,9.79,50.1,25,–,–,–,–,–,–,–,–,–,–
Brc1ccc2[nH]c3c(C4=NCCC4)nccc3c2c1,> 59.6,> 38.7,> 91.6,> 69.2,> 100,> 49.7,> 30.4,> 86.6,> 43.4,–,–,–,–,–,–,–,–,–,–
[CH3][Sn]([CH3])([CH3])[S]C(=S)N1CCOCC1,0.432,1.5,> 100,> 100,> 100,14.9,4.05,2.42,5.54,0.0786,0.28,7.55,1.81,9.94,1.22,0.135,0.208,0.162,–
C/C(=C\C(=O)Nc1ccc2n[nH]nc2c1)Nc1ccc2n[nH]nc2c1,> 100,> 100,> 100,> 100,> 100,> 100,> 100,> 100,> 100,–,–,–,–,–,–,–,–,–,–
Nc1cccc(-c2cc(=O)c3cc4c(cc3[nH]2)OCO4)c1,5.93,4.25,> 100,21.8,> 100,> 100,> 100,> 100,–,–,–,–,–,–,–,–,–,–,13
Nc1nc(Cl)c2ncn(CCCC(c3ccccc3)P(=O)(O)O)c2n1 (configuration not stated),> 100,> 100,> 100,> 100,> 100,> 100,–,> 100,> 100,–,–,–,–,–,–,–,–,–,–
Cc1c2cc[n+](Cc3ccc(I)cc3)cc2c(C)c2c1[nH]c1ccccc12,6.16,> 25,> 25,> 25,> 25,2.09,1.65,> 25,> 25,–,–,–,–,–,–,–,–,–,–
Cc1ccc(C)c2c1C1CCCCC3(OCCCO3)C21O (configuration not stated),> 100,> 100,> 100,> 100,> 100,> 100,> 100,> 100,> 100,–,–,–,–,–,–,–,–,–,–
Nc1nc(SCc2ccccc2Cl)c2ncn(C3OC(CO)C(O)C3O)c2n1 (configuration not stated),> 100,> 100,> 100,> 100,–,–,> 100,> 100,> 100,–,–,–,–,–,–,–,–,–,–
C[N+](C)(CCNc1ccc(NCC[N+](C)(C)Cc2ccc([N+](=O)[O-])cc2)c2c1C(=O)c1c(O)ccc(O)c1C2=O)Cc1ccc([N+](=O)[O-])cc1,> 50,> 50,> 50,> 50,–,> 50,> 5,> 50,–,–,–,–,–,–,–,–,–,–,> 50
CNC(=S)N/N=C/C(C)=N/NC(=S)NC,> 100,–,> 100,> 100,> 100,–,> 100,> 100,–,–,–,–,–,–,–,–,–,–,–
COC(=O)c1ccccc1C1CN=NC12Cc1ccc(C)cc1C2=O (configuration not stated),> 100,> 100,> 100,> 100,–,> 100,> 100,> 100,–,–,–,–,–,–,–,–,–,–,> 100
COc1cc2c(c(OC)c1OC)C(=O)c1c(O)cc(C)c(OC)c1C2=O,> 100,> 100,> 100,> 100,–,> 100,> 100,> 100,–,–,–,–,–,–,–,–,–,–,> 100
CC1=NN(c2nc(N)nc(CO)n2)C(C)(C)C1,> 100,> 100,> 100,> 100,–,> 100,> 100,> 100,–,–,–,–,–,–,–,–,–,–,> 100
COC(=O)CN1CCN(c2cccc3c2CCCC3)CC1,> 100,65.8,> 100,> 100,–,> 100,> 100,> 100,–,–,–,–,–,–,–,–,–,–,> 100
Nc1nc(Sc2ccc([N+](=O)[O-])c3nonc23)c2[nH]cnc2n1,3.11,20.9,27.2,14.1,–,9.14,1.8,2.87,–,–,–,–,–,–,–,–,–,–,18
Clc1ccc(-c2cn3c(nc4ccccc43)c(-c3ccccc3)n2)cc1,> 100,> 67.5,> 100,> 100,–,> 100,> 100,> 100,–,–,–,–,–,–,–,–,–,–,47
CC(=O)N[C@@H](Cc1ccc(O)cn1)C(=O)NCc1ccc(Cl)cc1,> 100,> 100,> 100,> 100,–,> 100,> 100,> 100,–,–,–,–,–,–,–,–,–,–,> 100
CNC(=O)OCc1cnc([N+](=O)[O-])n1C,> 100,> 100,> 100,> 100,–,> 100,> 100,> 100,–,–,–,–,–,–,–,–,–,–,> 100
O=c1cc(NNc2cccc3ccccc23)[nH]c(=O)[nH]1,31.3,31.9,29.9,24.8,–,29.4,56.8,40,–,–,–,–,–,–,–,–,–,–,27
NC(CCC(=O)c1ccccn1)C(=O)O (configuration not stated),> 100,> 100,> 100,> 100,–,> 100,> 100,> 100,–,–,–,–,–,–,–,–,–,–,> 100
CO[C@@]12C[C@H](CNC(=O)c3ccc[nH]3)O[C@@H]1NC(=O)N2,> 100,> 100,> 100,> 100,–,> 100,> 100,> 100,–,–,–,–,–,–,–,–,–,–,> 100
CC(=O)c1csc2c1C(=O)c1ccccc1C2=O,3.62,4.5,5.86,10.3,–,2.92,> 66.7,5.4,–,–,–,–,–,–,–,–,–,–,> 100
COC(=O)[C@@H]1c2c(oc3cc(CO)cc(O)c3c2=O)C=C[C@H]1O,29,14.2,23.6,9.48,–,21.5,> 100,10.4,–,–,–,–,–,–,–,–,–,–,20.1
CC(=O)OCC1OC(OCCCOP(=O)(OCCC#N)OCC2OC(n3cnc4c(N)ncnc43)C(OC(=O)c3ccccc3)C2OC(=O)c2ccccc2)C(OC(C)=O)C(OC(C)=O)C1OC(C)=O (configuration not stated),> 100,> 100,> 100,> 100,–,> 100,> 100,> 100,–,–,–,–,–,–,–,–,–,–,> 100
Nc1nc(Cl)c(CO)c(NCC2(CO)CCC2)n1,> 100,> 100,> 100,> 100,–,> 100,> 100,> 100,–,–,–,–,–,–,–,–,–,–,> 100
O=C(/C=C/c1ccc(-c2ccccc2)cc1)NCc1ccc(C(=O)NCCc2ccccc2)cc1,> 100,> 100,> 100,> 100,–,> 100,> 100,> 100,–,–,–,–,–,–,–,–,–,–,> 100
